Results on two compounds are retold here after paper PMC11327196, “A phase 1 study to assess the absolute bioavailability, mass balance, pharmacokinetics, metabolism, and excretion of [^14C]-mobocertinib, an oral inhibitor of EGFR exon 20 insertion mutations, in healthy participants” (Investigational New Drugs, 2024).

What is called bioavailability is dose-corrected exposure relative to a reference, in per cent. What is called AUC(0-inf) is total exposure, with the tail of the curve extrapolated. Read a low AUC(0-inf) as low exposure.

The conditions of data set [1]: oral doses ranging from 5 to 180 mg; cited from earlier work.
Data set [2] in a line: Period 1 absolute bioavailability study: plasma PK after single oral 160 mg mobocertinib capsules. The class given is in vivo, human. As to the method:
This was a two-period, open-label, single-dose phase 1 study (NCT03811834) conducted at one clinical site (Celerion, Lincoln, Nebraska, USA) in healthy male participants. The primary objective of Period 1 was to determine the absolute bioavailability of mobocertinib following a single oral dose of 160 mg mobocertinib as capsules and a single intravenous (IV) microdose of 50 µg (~ 2 µCi) [^14C]-mobocertinib. The primary objectives of Period 2 were to (1) assess the cumulative excretion of total radioactivity in urine and feces (mass balance); (2) assess the metabolite profile of mobocertinib in plasma, urine, and feces; and (3) characterize the PK of mobocertinib, AP32960, and AP32914 in plasma, whole blood, and urine, and total radioactivity concentration equivalents in plasma and whole blood following a single oral dose of 160 mg (~ 100 µCi) [^14C]-mobocertinib as an oral solution. A sample size of 6 healthy males was selected without statistical considerations and deemed adequate to meet the study objectives. Furthermore, the sample size was limited based on clinical considerations for human ADME studies and to limit exposure to radioactivity.
On Day 1 of Period 1, following an overnight fast of at least 10 h, participants received a single 160 mg dose of non-radiolabeled mobocertinib as capsules. At 3.75 h post oral dosing (i.e., 15 min before the median oral tmax of ~ 4 h), participants received a nominal dose of 50 µg (~ 2 µCi) [^14C]-mobocertinib as a 15-minute IV infusion. However, due to nonspecific binding of [^14C]-mobocertinib to the dosing syringe and tubing, actual doses administered ranged from 36.8 to 38.7 µg (1.47 to 1.55 µCi). Participants were required to stay in the clinic from Day − 1 through at least the 96-hour blood draw (Day 5) or until a discharge criterion was met (i.e., ≥ 80% of the total administered radioactive dose was recovered in urine and fecal samples or excretion of radioactivity in urine and feces combined had declined to ≤ 1% of the total administered dose per day for ≥ 2 consecutive intervals), up to a maximum of 7 days postdose (Day 8). Blood samples for the measurement of plasma mobocertinib, AP32960, and AP32914 concentrations were collected predose and at 0.5, 1, 2, 3, 4, 5, 6, 8, 12, 24, 36, 48, 72, and 96 h after oral administration. Additional blood samples to determine [^14C]-total radioactivity, [^14C]-mobocertinib, [^14C]-AP32960, and [^14C]-AP32914 in plasma were collected at 3.75 h after oral dosing (i.e., predose for [^14C] assessments), at the end of the IV infusion, and at 10, 20, and 30 min, and 1, 2, 4, 8, 20, 32, 44, 68, and 92 h after the end of infusion. […] Urine and feces were collected before oral dosing (− 48–0 h); urine was collected over 0–3.75 h, 3.75–12 h and 12–24 h after oral dosing; feces were collected from 0 to 3.75 h and 3.75–24 h after oral dosing; both urine and feces were then collected over 24-hour intervals until a discharge criterion was met, or up to Day 8 (168 h postdose).
(§1) Plasma, whole blood, and urine samples were assayed for mobocertinib, AP32960, and AP32914 concentrations using liquid chromatography-tandem mass spectrometry (Q2 Solutions, Ithaca, New York, USA). The analytical range for each analyte was 0.250 to 500 ng/mL in whole blood and plasma, and 1.00 to 1000 ng/mL in urine. […] Urine and fecal samples were assayed for total radioactivity following the IV dose of [^14C]-mobocertinib in Period 1, and whole blood, plasma, urine, and fecal samples were assayed for total radioactivity following the oral dose of [^14C]-mobocertinib in Period 2 using liquid scintillation counting (LSC; Celerion, Lincoln, Nebraska, USA; LLOQs: Period 1 urine: 0.115–0.118 ng eq/g, feces: 0.720–0.759 ng eq/g; Period 2 whole blood: 87.3–112 ng eq/g, plasma: 116–132 ng eq/mL, urine: 37.8–46.8 ng eq/g, feces: 110–336 ng eq/g across participants). […]

Data set [3] can be described thus: Period 1: excretion in urine and feces after IV [14C]-mobocertinib. The note with it: Period 1, IV infusion 50 µg (~2 µCi) [14C]-mobocertinib. The class given is in vivo, human. As to the method: On Day 1 of Period 1, following an overnight fast of at least 10 h, participants received a single 160 mg dose of non-radiolabeled mobocertinib as capsules. At 3.75 h post oral dosing (i.e., 15 min before the median oral tmax of ~ 4 h), participants received a nominal dose of 50 µg (~ 2 µCi) [^14C]-mobocertinib as a 15-minute IV infusion. However, due to nonspecific binding of [^14C]-mobocertinib to the dosing syringe and tubing, actual doses administered ranged from 36.8 to 38.7 µg (1.47 to 1.55 µCi). Participants were required to stay in the clinic from Day − 1 through at least the 96-hour blood draw (Day 5) or until a discharge criterion was met (i.e., ≥ 80% of the total administered radioactive dose was recovered in urine and fecal samples or excretion of radioactivity in urine and feces combined had declined to ≤ 1% of the total administered dose per day for ≥ 2 consecutive intervals), up to a maximum of 7 days postdose (Day 8). Blood samples for the measurement of plasma mobocertinib, AP32960, and AP32914 concentrations were collected predose and at 0.5, 1, 2, 3, 4, 5, 6, 8, 12, 24, 36, 48, 72, and 96 h after oral administration. Additional blood samples to determine [^14C]-total radioactivity, [^14C]-mobocertinib, [^14C]-AP32960, and [^14C]-AP32914 in plasma were collected at 3.75 h after oral dosing (i.e., predose for [^14C] assessments), at the end of the IV infusion, and at 10, 20, and 30 min, and 1, 2, 4, 8, 20, 32, 44, 68, and 92 h after the end of infusion. […]
as §1, with “USA).” for “USA). The analytical range for each analyte was 0.250 to 500 ng/mL in whole blood and plasma, and 1.00 to 1000 ng/mL in urine.”, “participants). Urine and fecal samples collected in Period 1 that had total radioactivity concentration equivalents below the LLOQ of the Celerion LSC assay were sent to Pharmaron for measurement by AMS (LLOQ: urine: 0.0000253–0.00111 ng eq/g; feces: 0.000404–0.0278 ng eq/g across participants).” for “participants).”

The mark [4] stands for this setting: Period 1, single oral 160 mg mobocertinib capsules, geometric mean (geometric CV%).

For the compound `C=CC(=O)Nc1cc(Nc2ncc(C(=O)OC(C)C)c(-c3cn(C)c4ccccc34)n2)c(OC)cc1N(C)CCN(C)C` [Mobocertinib], the “median time to maximum observed concentration (tmax)” value in data set [1] is recorded as 4 h. Besides, in data set [2] (setting [4]), the CL/F is 152 (64.9) L/h and the Cmax was 56.7 (52.2) ng/mL. Further, in data set [2] (Period 1, single oral 160 mg mobocertinib capsules, median (range)), the tmax is given as 5.0 (4.0–6.0) h. Also, the bioavailability in data set [2] (male, human, Period 1, oral 160 mg capsules AUC∞ vs dose-normalized IV microdose AUC∞, 90% CI 22.4–60.2%, read-out: geometric mean absolute oral bioavailability) was found to be 36.7%. For the same compound, the AUC(0-inf) in data set [2] (male, human, Period 1, single oral 160 mg mobocertinib capsules, geometric mean (geometric CV%)) was found to be 1050 ng·h/mL. The Vd/F in data set [2] (male, human, Period 1, single oral 160 mg mobocertinib capsules, geometric mean (geometric CV%), read-out: Vz/F) is 5030 L. The half-life in data set [2] (male, human, Period 1, single oral 160 mg mobocertinib capsules, geometric mean (geometric CV%), read-out: t1/2z (converted)) is 22.9 h.
[^14C]-mobocertinib: in data set [3], the “administered radioactive dose excreted in urine as analyte” value was found to be 1.5%, the “dose recovered as total radioactivity in feces overall” value is listed as 69.9%, the “dose recovered as total radioactivity in urine overall” value stood at 4.7% and the “radioactive dose excreted in feces as analyte” value worked out at 2.5%.
